Laboratory results: patent US9339034B2, “Use of thaxtomin for selective control of rice and aquatic based weeds” (MARRONE BIO INNOVATIONS, INC., priority 2009, dated 2016)

Tests used:
[1] = tested on: TPL (transplanted 'M202' Japonica-type rice); assay: Greenhouse pot study, effect on crop growth, transplanted rice; type: in vivo; conditions: for effect on crop growth (rice): TPL
[2] = tested on: most of the Echinochloa spp.; assay: Greenhouse pot study, weed control; type: in vivo; conditions: up to the highest rate tested; 1000 g a.i. per hectare
Excerpt: (§1) Moderate suppression (60%) was noted on Echinochloa colonum at 500 g a.i. per hectare.

Ammania sp = assay: Pot study, spray of pure thaxtomin A solutions, % control; type: in vivo, redstem; Ammannia spp.
Experimental: (§2) A pot study was conducted to test the phytotoxicity of thaxtomin A on broadleaved, sedge and grass weeds. Seeds of two most common broadleaf (redstem; Ammannia spp. and common waterplantain; Alisma plantago-aquatica), sedge (smallflower umbrella sedge; Cyperus diiformis) and grass (sprangletop: Leptochloa uninervia) weeds each were planted in a plastic pots filled with heavy clay soil. The less than 1-inch tall plants grown under growth lights (12-h light/12-h dark) at 28° C. were sprayed with pure thaxtomin A solutions containing 0.05, 0.1, 0.2, and 0.4 mg thaxtomin A per mL of solvent (4% ethanol and 0.2% non-ionic surfactant). A solution of 4% ethanol+0.2% non-ionic surfactant without thaxtomin A was used as a control treatment. Same treatments were applied to three-inch tall rice plants grown submerged under growth lights at 28° C. […] All treatments were applied in three replicates. Treated plants were kept at 28° C. under growth lights and observed at three time points—5, 12 and 21 days after treatment—for visual symptoms of phytotoxicity and % control.

transplanted rice = assay: First study, crop safety; type: in vivo; conditions: all rates tested (64 to 1000 g a.i. per hectare)
Cyperus sp = assay: Pot study, spray of pure thaxtomin A solutions, % control; type: in vivo, smallflower umbrella sedge; Cyperus diiformis
Experimental: as §2

rice (S102, M104, M206) = assay: Pot study, phytotoxicity on rice plants; type: in vivo; conditions: three rice cultivars (S102, M104, M206); 0.05-0.4 mg/mL; each evaluation time point (5, 12, 21 days)
Experimental: as §2

MON = assay: Greenhouse pot study, weed control; type: in vivo, Monorhoria vaginalis
Echinochloa colonum = assay: First study, weed control; type: in vivo; conditions: 500-1000 g a.i. per hectare
SCM = assay: Greenhouse pot study, weed control; type: in vivo, Scirpus mucronatus
Excerpt: (§3) The activity on susceptible and resistant biotypes of Scirpus mucronatus was somewhat weaker (70 to 75%) than that observed for other sedge weeds in this study.

MAQ = assay: Greenhouse pot study, weed control; type: in vivo, Marsilea quadrifolia
Excerpt: as §3

BYG = assay: Greenhouse pot study, weed control; type: in vivo, barnyardgrass
DSA = assay: Greenhouse pot study, weed control; type: in vivo, Heteranthem limosa
EO2 = assay: Greenhouse pot study, weed control; type: in vivo, Echinochloa spp.
Excerpt: as §1

DSR (direct-seeded rice) = assay: Greenhouse pot study, effect on crop growth, direct-seeded rice; type: in vivo
CPD = assay: Greenhouse pot study, weed control; type: in vivo, Cyperus difformis
Excerpt: as §1

barnyardgrass = assay: First study, weed control; type: in vivo; conditions: 500-1000 g a.i. per hectare
WCN = assay: Greenhouse pot study, weed control; type: in vivo, Eleocharis dulcis
Excerpt: as §3

direct-seeded rice = assay: First study, crop safety; type: in vivo; conditions: rates up to 750 g a.i. per hectare
WPL = assay: Greenhouse pot study, weed control; type: in vivo, Alisma-plamago aquatica
Excerpt: as §1

ECC = assay: Greenhouse pot study, weed control; type: in vivo, Echinochloa colonum
Excerpt: as §1

## CN1C(=O)[C@](O)(Cc2cccc(O)c2)N(C)C(=O)[C@@H]1Cc1c[nH]c2cccc([N+](=O)[O-])c12 [thaxtomin A]
[1]; 1000 g a.i.
  selectivity on transplanted rice: excellent selectivity
[1]; 64 g/ha
  effect on crop growth (rice): 0%
[1]; 125 g/ha
  effect on crop growth (rice): 0%
[1]; 250 g/ha
  effect on crop growth (rice): 0%
[1]; 500 g/ha
  effect on crop growth (rice): 0%
[1]; 1000 g/ha
  effect on crop growth (rice): 10%
[1]; transplanted 'M202' Japonica-type rice, 500 g a.i. per hectare
  rice selectivity: excellent rice selectivity
[2]
  activity on Echinochloa spp.: weakness
Ammania sp; Ammania sp, 5 DAYS, 0.05 mg/mL in 4% ethanol
  % control: 0%
Ammania sp; Ammania sp, 5 DAYS, 0.1 mg/mL in 4% ethanol
  % control: 0%
Ammania sp; Ammania sp, 5 DAYS, 0.2 mg/mL in 4% ethanol
  % control: 0%
Ammania sp; Ammania sp, 5 DAYS, 0.4 mg/mL in 4% ethanol
  % control: 0%
Ammania sp; Ammania sp, 12 DAYS, 0.05 mg/mL in 4% ethanol
  % control: 0a %
Ammania sp; Ammania sp, 12 DAYS, 0.1 mg/mL in 4% ethanol
  % control: 0a %
Ammania sp; Ammania sp, 12 DAYS, 0.2 mg/mL in 4% ethanol
  % control: 0a %
Ammania sp; Ammania sp, 12 DAYS, 0.4 mg/mL in 4% ethanol
  % control: 3b %
Ammania sp; Ammania sp, 21 DAYS, 0.05 mg/mL in 4% ethanol
  % control: 63b %
Ammania sp; Ammania sp, 21 DAYS, 0.1 mg/mL in 4% ethanol
  % control: 53b %
Ammania sp; Ammania sp, 21 DAYS, 0.2 mg/mL in 4% ethanol
  % control: 70b %
Ammania sp; Ammania sp, 21 DAYS, 0.4 mg/mL in 4% ethanol
  % control: 75b %
Ammania sp; red stem (Ammania sp.), highest concentration (0.4 mg/mL)
  % control: 75-80%
Transplanted rice
  safety to transplanted rice: complete safety
Cyperus sp; Cyperus sp, 5 DAYS, 0.05 mg/mL in 4% ethanol
  % control: 5a %
Cyperus sp; Cyperus sp, 5 DAYS, 0.1 mg/mL in 4% ethanol
  % control: 12a %
Cyperus sp; Cyperus sp, 5 DAYS, 0.2 mg/mL in 4% ethanol
  % control: 16a %
Cyperus sp; Cyperus sp, 5 DAYS, 0.4 mg/mL in 4% ethanol
  % control: 25a %
Cyperus sp; Cyperus sp, 12 DAYS, 0.05 mg/mL in 4% ethanol
  % control: 15a %
Cyperus sp; Cyperus sp, 12 DAYS, 0.1 mg/mL in 4% ethanol
  % control: 75b %
Cyperus sp; Cyperus sp, 12 DAYS, 0.2 mg/mL in 4% ethanol
  % control: 77b %
Cyperus sp; Cyperus sp, 12 DAYS, 0.4 mg/mL in 4% ethanol
  % control: 73b %
Cyperus sp; Cyperus sp, 21 DAYS, 0.05 mg/mL in 4% ethanol
  % control: 53b %
Cyperus sp; Cyperus sp, 21 DAYS, 0.1 mg/mL in 4% ethanol
  % control: 90c %
Cyperus sp; Cyperus sp, 21 DAYS, 0.2 mg/mL in 4% ethanol
  % control: 88c %
Cyperus sp; Cyperus sp, 21 DAYS, 0.4 mg/mL in 4% ethanol
  % control: 83c %
Cyperus sp; sedge (Cyperus difformis), highest concentration (0.4 mg/mL)
  % control: 75-80%
Rice (S102, M104, M206)
  phytotoxicity in rice cultivars: no phytotoxicity
MON; 64 g/ha
  % control: 0%
MON; 125 g/ha
  % control: 100%
MON; 250 g/ha
  % control: 100%
MON; 500 g/ha
  % control: 100%
MON; 1000 g/ha
  % control: 100%
Echinochloa colonum
  % control: 90-100%
SCM; 64 g/ha
  % control: 0%
SCM; 125 g/ha
  % control: 30%
SCM; 250 g/ha
  % control: 30%
SCM; 500 g/ha
  % control: 70%
SCM; 1000 g/ha
  % control: 95%
MAQ; 64 g/ha
  % control: 20%
MAQ; 125 g/ha
  % control: 25%
MAQ; 250 g/ha
  % control: 40%
MAQ; 500 g/ha
  % control: 70%
MAQ; 1000 g/ha
  % control: 85%
BYG; 64 g/ha
  % control: 0%
BYG; 125 g/ha
  % control: 0%
BYG; 250 g/ha
  % control: 15%
BYG; 500 g/ha
  % control: 30%
BYG; 1000 g/ha
  % control: 40%
DSA; 64 g/ha
  % control: 0%
DSA; 125 g/ha
  % control: 100%
DSA; 250 g/ha
  % control: 100%
DSA; 500 g/ha
  % control: 100%
DSA; 1000 g/ha
  % control: 100%
EO2; EO2, 64 g/ha
  % control: 0%
EO2; EO2, 125 g/ha
  % control: 0%
EO2; EO2, 250 g/ha
  % control: 20%
EO2; EO2, 500 g/ha
  % control: 20%
EO2; EO2, 1000 g/ha
  % control: 30%
DSR (direct-seeded rice); 64 g/ha
  effect on crop growth (rice): 10%
DSR (direct-seeded rice); 125 g/ha
  effect on crop growth (rice): 10%
DSR (direct-seeded rice); 250 g/ha
  effect on crop growth (rice): 10%
DSR (direct-seeded rice); 500 g/ha
  effect on crop growth (rice): 15%
DSR (direct-seeded rice); 1000 g/ha
  effect on crop growth (rice): 40%
CPD; 64 g/ha
  % control: 0%
CPD; 125 g/ha
  % control: 85%
CPD; 250 g/ha
  % control: 100%
CPD; 500 g/ha
  % control: 100%
CPD; 1000 g/ha
  % control: 100%
barnyardgrass
  activity on barnyardgrass: moderate activity
WCN; 125 g/ha
  % control: 35%
WCN; 250 g/ha
  % control: 85%
WCN; 500 g/ha
  % control: 85%
WCN; 1000 g/ha
  % control: 95%
direct-seeded rice
  growth reductions to direct-seeded rice: only slight growth reductions
WPL; 64 g/ha
  % control: 0%
WPL; 125 g/ha
  % control: 70%
WPL; 250 g/ha
  % control: 95%
WPL; 500 g/ha
  % control: 100%
WPL; 1000 g/ha
  % control: 100%
ECC; 64 g/ha
  % control: 0%
ECC; 125 g/ha
  % control: 0%
ECC; 250 g/ha
  % control: 35%
ECC; 500 g/ha
  % control: 60%
ECC; 1000 g/ha
  % control: 60%
